Assay results taken from patent US9648880B2, “Antifungal agents and uses thereof” (University of Massachusetts, priority 2012, dated 2017).

Experiments:
[1] = tested on: C. albicans hyphae formation; test: filamentation assay (hyphal morphogenesis); format: cell-based, Candida albicans; conditions: for inhibition of hyphal formation and induction of RFP: 12.5 μM, Spider media 16 hours, HWP1-RFP reporter; for formation of hyphae: Spider media, HWP1-RFP reporter (Example 14)
Text: Because the ability to interconvert between yeast and hyphal morphologies is usually correlated with pathogenicity (Finkel, 2010), we explored this observation in more detail. First, we assessed the effect of our compounds on the induction of hyphae by “Spider” media (Chauhan, 2009). For this experiment, we used a strain that contains the hyphal-specific HWP1 promoter to the Red Fluorescent Protein (RFP) open reading frame (Ganguly, 2011), which provides a molecular reporter for hyphae formation that we used in addition to visual examination of cell morphology. We initially tested each of the compounds that inhibit adhesion to polystyrene (FIG. 1B), as well as compounds #9, Q1 and Q2 (FIG. 3A), at concentration of 12.5 μM. […] Compounds Q1 and Q2 share a “Scaffold 1” backbone with compounds #4 and #9, but contain a quinoline group (FIG. 3A). Therefore, the compounds with a quinoline group can inhibit hyphae formation, but not adhesion to polystyrene or human cells (FIG. 3). […] Additionally, multiple chemical backbones are able to inhibit hyphae formation, because compound #12 has a “Scaffold 2” backbone (Table 2). To better discriminate the inhibitory compounds, we tested #4, 12 and Q1 at lower concentrations. […] Furthermore, as in the polystyrene adhesion assay (FIG. 8), compound #4 is effective at inhibiting hyphae formation at concentrations >2.5 μM.
Overnight cultures of SC5314 or SGH584 were pregrown in uridine-supplemented SC media at 30° C. to an OD600>13 and diluted 1:10 into prewarmed Spider medium (1% Peptone (Difco), 1% Mannitol (Sigma) and 0.2% K2HPO4 (Sigma) (Chauhan, 2009) in glass tubes and grown for 16 hrs at 37° C. shaking at 200 rpm in the presence or absence of drugs as indicated. DIC and fluorescence images were acquired using a Zeiss Axiovert 200 inverted microscope equipped with a Qicam 12-bit Fast 1394 digital CCD camera (Qimaging). Image acquisition was carried out using Openlab 5 software (Improvison).
Because the ability to interconvert between yeast and hyphal morphologies is usually correlated with pathogenicity, we explored this in more detail, examining induction of hyphae upon carbon starvation (using Spider media). We used a strain that contains the Red Fluorescent Protein (RFP) open reading frame driven by the hyphal-specific HWP1 promoter (Ganguly et al., Eukaryotic Cell 10:1448, 2011), which provides a molecular reporter for hyphae formation in addition to cell morphology. […] Therefore, the shared backbone of these compounds correlates with inhibition of multiple activities.
Hyphal morphogenesis is induced by multiple stimuli that act via multiple signal transduction pathways and is mediated by a complex transcriptional network. […] We detected morphological difference between control and compound #4-treated cultures as early as 60 minutes in 10% serum, and 90 minutes in Spider media.

[2] = tested on: C. albicans SC5314-GFP biofilm; test: biofilm formation on silicone elastomers; format: cell-based, Candida albicans; conditions: for biofilm formation, visual inspection: silicone mesh
Method: FIGS. 5A-5C. Effect of small molecules on biofilm formation in vitro. FIG. 5A is a series of photographs showing biofilm formation on silicone elastomers. Biofilm assay was performed with SC5314-GFP and edt1^Δ/Δ-GFP and photographed after 60 hrs. Indicated compounds were added at 50 μM. Turbid medium indicates planktonic cells unattached to silicone elastomers when biofilm formation is inhibited. Clear medium with the cell attached to the silicone elastomer indicate establishment of functional biofilm. Each treatment was done in triplicate. FIG. 5B is a graph showing quantitation of turbidity of medium. Media was removed from the wells, vortexed vigorously and the OD at 600 nm was measured in a spectrophotometer. FIG. 5C is a graph showing quantitation of dry weight of biofilm. Dry weight in mg of air-dried silicone elastomers.
Fungal biofilm formation on implanted medical devices is a serious medical problem because these biofilms can lead to life-threatening systemic infections. An established in vitro assay to study device colonization makes use of silicone mesh as a surrogate surface (Nobile, 2006). We tested how the compounds that affected polystyrene adhesion (FIG. 1) would affect biofilm formation by visual inspection of the biofilms formed, by measuring the optical density of the supernatant liquid cultures, and by measuring their dry weights. […] Therefore, compounds #4 and Q1 were effective inhibitors of both hyphal morphogenesis (FIG. 4) and biofilm formation on silicone mesh (FIG. 5).
We adapted a published method (Nobile, 2006, supra). Autoclaved, pre-weighed silicone mesh squares (Bentec, Catalog Number PR72034-04N) were incubated overnight at 37° C. with undiluted bovine serum. Following washing with PBS, the squares were transferred to 12-well plates and incubated with 0.5 OD/ml SC5314-GFP cells in Spider medium (with or without drugs as indicated), for 90 min at 37° C., shaking at 200 rpm. Squares were washed in PBS and transferred to new 12-well plates containing fresh Spider medium with fresh drugs and incubated for 60 hrs in a 37° C. shaker at 200 rpm. The plates were then photographed, the liquid media were collected for A600 nm measurements, and the dry weights of the bound biofilms were measured following drying of the silicone squares in a chemical hood.

C. albicans SC5314 = test: alamarBlue-based polystyrene adhesion assay; format: cell-based, Candida albicans
Text: We prioritized the candidate compounds by testing the dose-dependence of their effects. Because of the laborious washing required to remove background crystal violet dye staining, we developed adhesion assays using alternative detection reagents. Previous experiments screens have used the vital dye alamarBlue to measure Candida viability (Lafleur, J. Antimicrob Chemother. 66: 820-826, 2011; Youngsaye supra), so we tested this reagent as a way to measure cells remaining adhered after washing. […] The majority of the reordered compounds were effective at reducing Candida adhesion at 50 μM, the concentration originally tested during the screen. […] Although compounds that were still effective at 25 μM were less generally less so at 7.5 μM (FIG. 1C), many candidates still reduced adhesion by >50% at this lower concentration.
Overnight cultures of SC5314 and edt1^−/− cells were grown and plated onto Immulon 2HB 96-well microtiter plates and treated with small molecules as described above. Following incubations, media was decanted and plates were washed twice with 100 μl/well PBS. alamarBlue (Life Technologies) was resuspended to a final concentration of 5% in RPMI buffered with 0.165 M MOPS and then 100 μl was added to each well, followed by further incubation for 2 hours at 37° C. Fluorescence signals at 555Ex/585Em were read using a SpectraMax M5 Plate reader (Molecular Devices).

[3] = tested on: C. elegans infected with C. albicans; test: C. elegans pathogenesis assay; format: in vivo, Caenorhabditis elegans; conditions: 12.5 μM
Method: We therefore tested whether compound #4 can alter fungal infections in two in vivo settings. First, we performed pathogenesis assays in which nematodes (Caenorhabditis elegans) are infected with C. albicans, resulting in killing of the nematode host (Jain, 2009; Okoli, 2009). We used this assay to test whether compound #4 might have a protective effect, exposing C. elegans to Candida albicans and either DMSO vehicle, the commonly used antifungal drug fluconazole at 12.5 μM, or compound #4 at the same concentration. […] Therefore, consistent with its in vitro activities, compound #4 functions as an antifungal agent in this model infection system.
Three worms in the L3/L4 stage were transferred to each of two NGM agar plates containing E. coli OP50 and grown at 20° C. for four days. On the day of the experiment, worms were washed off the plates with M9 buffer and centrifuged at 900×g for 2 min. The supernatant was removed, and the worms were then resuspended in a bleach solution (1:4 dilution of commercial bleach (5.25%) diluted in 0.25 M sodium hydroxide). The worm suspension was mixed gently by inversion for 3 min, and centrifuged for 2 min at 2,000×g. The pellet containing the eggs was washed with M9 buffer and centrifuged at 2,000×g for 2 min and then resuspended in 500 μl M9 buffer. […]

Structure (SMILES)	inhibition of hyphal formation and induction of RFP [1]	biofilm formation, visual inspection ([2]; 50 μM, 60 hrs)	formation of hyphae [1]	also measured
O=C(c1csc2ccccc12)N1CCN(c2ccc(Cl)c(Cl)c2)CC1 [Compound 3]	did not block hyphal formation as efficiently	–	–	–
Cc1ccc(C(=O)N2CCN(c3ccc(Cl)cc3)CC2)cc1C [Compound 7]	did not block hyphal formation as efficiently	most effectively kept the cells dispersed in the media rather than on the mesh	–	–
Cc1ccc(N2CCN(C(=O)c3ccccc3)CC2)cc1Cl [Compound 8]	did not block hyphal formation as efficiently	–	–	–
COc1ccc(C(=O)Nc2cccc(Cl)c2)cc1Br [Compound 12]	most potently inhibited hyphal formation and induction of RFP	most effectively kept the cells dispersed in the media rather than on the mesh	–	synergy on adhesion upon combining compound #4 and compound #12 (C. albicans SC5314; #4 1.5 μM with #12 4 and 6 μM): did not further reduce adhesion; effect on adhesion of compound alone (C. albicans SC5314; compound #4 1.5 μM, compound #12 4 and 6 μM): partial effects; hyphae formation induced by Spider media ([1]; 5 μM): A few hyphae were observed; hyphae formation induced by Spider media ([1]; 10 μM): completely blocked the hyphae formation
CCOc1ccc(NC(=O)c2c(NC(=O)CNCCc3ccccc3)sc3c2CCC3)cc1 [Compound 14]	–	–	blocked formation of hyphae	–
Cc1cc(C)n(CC(O)Cn2c3ccc(Cl)cc3c3cc(Cl)ccc32)c(=O)n1 (centres unmarked) [Compound 21]	–	most effectively kept the cells dispersed in the media rather than on the mesh	–	media density (OD 600 nm) ([2]; 50 μM, 60 hrs): more modest than for the other compounds tested
O=C(NCCC12CC3CC(CC(C3)C1)C2)c1ccc(S(=O)(=O)N2CCOCC2)cc1 [Compound 26]	–	–	blocked formation of hyphae	–
COc1ccc(N2CCN(C(=O)CCCN3C(=O)c4cccc5cccc(c45)C3=O)CC2)cc1 [Compound 27]	–	–	blocked formation of hyphae	biofilm formation on silicone mesh ([2]; Example 14): effective inhibitors of both hyphal morphogenesis and biofilm formation on silicone mesh
OC(Cn1cncn1)(Cn1cncn1)c1ccc(F)cc1F [fluconazole, reference compound]	–	–	–	lifespan of infected worms [3]: increased the lifespan of the infected worms
